# Source: BindingDB's records for patent WO2025049746 (Eikon Therapeutics, 2025)
# Key:
# [1] = target: Bifunctional 3'-5' exonuclease/ATP-dependent helicase WRN (Homo sapiens, UniProt Q14191); test: ADP-Glo Kinase Assay
# Procedure: ATPase activity was measured using the ADP-Glo Kinase Assay following the manufacturers recommended protocol.
# [2] = target: T1, Bifunctional 3'-5' exonuclease/ATP-dependent helicase WRN [480-1251] (UniProt Q14191); test: Biochemical Activity Assays
# T1 construct: 480-1251
# T1 sequence (Q14191 480-1251): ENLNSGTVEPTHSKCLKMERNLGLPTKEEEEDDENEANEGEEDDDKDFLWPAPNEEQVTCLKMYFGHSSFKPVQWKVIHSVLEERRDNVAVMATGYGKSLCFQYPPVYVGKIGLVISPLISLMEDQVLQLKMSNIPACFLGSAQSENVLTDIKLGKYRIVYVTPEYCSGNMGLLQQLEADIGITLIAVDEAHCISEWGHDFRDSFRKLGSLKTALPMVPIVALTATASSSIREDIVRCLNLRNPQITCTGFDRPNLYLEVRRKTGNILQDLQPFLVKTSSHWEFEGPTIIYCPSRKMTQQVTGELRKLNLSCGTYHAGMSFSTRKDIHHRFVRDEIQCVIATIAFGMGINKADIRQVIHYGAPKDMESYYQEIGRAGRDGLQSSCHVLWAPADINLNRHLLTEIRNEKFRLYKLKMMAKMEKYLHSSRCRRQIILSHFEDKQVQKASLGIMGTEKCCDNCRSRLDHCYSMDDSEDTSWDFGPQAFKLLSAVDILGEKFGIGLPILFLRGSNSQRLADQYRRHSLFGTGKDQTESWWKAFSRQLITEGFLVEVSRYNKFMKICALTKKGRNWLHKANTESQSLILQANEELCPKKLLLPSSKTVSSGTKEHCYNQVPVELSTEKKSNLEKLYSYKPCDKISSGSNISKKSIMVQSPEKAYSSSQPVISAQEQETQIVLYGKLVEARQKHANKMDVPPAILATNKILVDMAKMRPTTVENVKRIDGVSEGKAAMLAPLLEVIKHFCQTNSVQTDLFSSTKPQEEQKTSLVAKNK
# Sequence of Bifunctional 3'-5' exonuclease/ATP-dependent helicase WRN (Q14191 whole entry): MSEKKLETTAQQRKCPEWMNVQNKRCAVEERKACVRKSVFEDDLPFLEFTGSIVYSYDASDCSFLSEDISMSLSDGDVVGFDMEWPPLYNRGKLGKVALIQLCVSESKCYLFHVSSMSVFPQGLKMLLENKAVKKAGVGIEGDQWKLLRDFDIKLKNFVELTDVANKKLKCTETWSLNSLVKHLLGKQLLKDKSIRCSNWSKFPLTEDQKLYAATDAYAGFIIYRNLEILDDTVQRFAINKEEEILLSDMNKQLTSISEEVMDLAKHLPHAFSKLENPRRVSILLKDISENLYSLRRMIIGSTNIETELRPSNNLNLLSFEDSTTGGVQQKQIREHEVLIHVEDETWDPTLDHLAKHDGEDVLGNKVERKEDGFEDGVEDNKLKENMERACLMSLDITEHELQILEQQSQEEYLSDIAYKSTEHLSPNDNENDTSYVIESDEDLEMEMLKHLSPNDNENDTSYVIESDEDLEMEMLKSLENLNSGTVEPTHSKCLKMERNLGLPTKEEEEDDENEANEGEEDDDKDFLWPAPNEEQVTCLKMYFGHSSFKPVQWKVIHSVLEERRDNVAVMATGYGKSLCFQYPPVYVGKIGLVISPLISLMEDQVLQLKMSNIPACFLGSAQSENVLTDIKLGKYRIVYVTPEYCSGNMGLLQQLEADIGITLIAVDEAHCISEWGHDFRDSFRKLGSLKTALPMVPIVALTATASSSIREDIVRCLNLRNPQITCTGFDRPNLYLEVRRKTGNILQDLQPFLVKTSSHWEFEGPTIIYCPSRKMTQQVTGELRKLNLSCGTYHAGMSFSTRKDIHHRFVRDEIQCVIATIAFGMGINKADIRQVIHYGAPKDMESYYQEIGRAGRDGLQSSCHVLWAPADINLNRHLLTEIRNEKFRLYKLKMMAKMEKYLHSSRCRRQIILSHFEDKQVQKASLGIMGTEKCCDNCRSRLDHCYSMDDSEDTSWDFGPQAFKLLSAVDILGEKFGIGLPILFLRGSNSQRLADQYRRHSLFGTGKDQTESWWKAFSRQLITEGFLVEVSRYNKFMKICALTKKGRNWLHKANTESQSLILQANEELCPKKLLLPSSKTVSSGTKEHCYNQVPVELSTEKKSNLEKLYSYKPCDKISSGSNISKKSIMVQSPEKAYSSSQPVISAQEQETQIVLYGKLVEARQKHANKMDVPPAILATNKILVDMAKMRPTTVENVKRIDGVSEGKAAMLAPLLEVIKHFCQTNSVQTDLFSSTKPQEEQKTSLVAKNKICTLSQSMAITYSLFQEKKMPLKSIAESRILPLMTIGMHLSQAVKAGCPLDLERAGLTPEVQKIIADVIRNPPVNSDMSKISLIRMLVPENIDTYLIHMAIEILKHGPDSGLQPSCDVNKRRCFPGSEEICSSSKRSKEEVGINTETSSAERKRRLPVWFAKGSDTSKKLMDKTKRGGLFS
SMILES,IC50 [1] [µM],IC50 [2] [µM]
"CCc1c(N2CCN(C(=O)c3ncnc(C)c3O)CC2)c(=O)n2nc(-c3coc4ccccc34)nc2n1CC(=O)Nc1ccc(C(F)(F)F)cc1Cl [WO2025049746, Example 327]",0.03,0.056
"CCc1c(N2CCN(C(=O)c3ccccc3NS(C)(=O)=O)CC2)c(=O)n2nc(C3=CCOCC3)nc2n1CC(=O)Nc1ccc(C(F)(F)F)cc1Cl [WO2025049746, Example 38]",0.0708,0.0603
"CCc1c(N2CCN(C(=O)c3ncnc(C)c3O)CC2)c(=O)n2nc(-c3ccc4c(c3)CCO4)nc2n1CC(=O)Nc1ccc(C(F)(F)F)cc1Cl [WO2025049746, Example 11]",0.0273,0.0246
"CCc1c(N2CCN(C(=O)c3ncnc(C)c3O)CC2)c(=O)n2nc(-c3cc(F)c4nn(C)cc4c3)nc2n1CC(=O)Nc1ccc(C(F)(F)F)cc1Cl [WO2025049746, Example 287]",0.028,0.029
"CCc1c(N2CCN(C(=O)c3ncnc(N4CC(F)(F)C4)c3O)CC2)c(=O)n2nc(-c3ccc4c(c3)COC4)nc2n1CC(=O)Nc1ccc(C(F)(F)F)cc1Cl [WO2025049746, Example 412]",0.037,0.029
"CCc1c(N2CCN(C(=O)c3ncnc(C)c3O)CC2)c(=O)n2nc(-c3ccc4nc(NC)oc4c3)nc2n1CC(=O)Nc1ccc(C(F)(F)F)cc1Cl [WO2025049746, Example 307]",0.032,0.032
"CCc1c(N2CCN(C(=O)c3ncnc(C)c3O)CC2)c(=O)n2nc(-c3ccc4c(c3)COC4)nc2n1CC(=O)Nc1c(Cl)cc(C(F)(F)F)c2c1OCC2 [WO2025049746, Example 442]",0.054,0.067
"CCc1c(N2CCN(C(=O)C(C)O)CC2)c(=O)n2nc(C3=CCOCC3)nc2n1CC(=O)Nc1ccc(C(F)(F)F)cc1Cl (stereo unspecified) [WO2025049746, Example 54]",0.182,0.0461
"CCc1c(N2CCN(C(=O)c3ncnc(C)c3O)CC2)c(=O)n2nc(C3=CCOCC3)nc2n1CC(=O)Nc1ccc(OC(F)(F)Cl)cc1 [WO2025049746, Example 72]",0.0146,0.0122
"CCc1c(N2CCN(C(=O)c3ncnc(C)c3O)CC2)c(=O)n2nc(-c3ccc4nc(N)oc4c3)nc2n1CC(=O)Nc1ccc(C(F)(F)F)cc1Cl [WO2025049746, Example 284]",0.025,0.026
"CCc1c(N2CCN(C(=O)c3ncnc(C)c3O)CC2)c(=O)n2nc(-c3ccc4c(c3)COC43CN(C)C3)nc2n1CC(=O)Nc1ccc(C(F)(F)F)cc1Cl [WO2025049746, Example 209]",0.056,0.045
"CCc1c(N2CCN(C(=O)c3ncnc(C)c3O)CC2)c(=O)n2nc(-c3ccc4c(c3)CN(C)C4(C)C)nc2n1CC(=O)Nc1ccc(C(F)(F)F)cc1Cl [WO2025049746, Example 261]",0.031,0.033
"CCc1c(N2CCN(C(=O)c3ncnc(C)c3O)CC2)c(=O)n2nc(-c3cc4n(n3)CCCC4)nc2n1CC(=O)Nc1ccc(C(F)(F)F)cc1Cl [WO2025049746, Example 184]",0.068,0.058
"CCc1c(N2CCN(C(=O)c3ncnc(C)c3O)CC2)c(=O)n2nc(-c3ccc4nn(CC)cc4c3)nc2n1CC(=O)Nc1ccc(C(F)(F)F)cc1Cl [WO2025049746, Example 319]",0.025,0.03
"CCc1c(N2CCN(C(=O)c3ncnc(C)c3O)CC2)c(=O)n2nc(-c3cccc4nc(C)oc34)nc2n1CC(=O)Nc1ccc(C(F)(F)F)cc1Cl [WO2025049746, Example 23]",0.0437,0.03
"CCc1c(N2CCN(C(=O)c3ncnc(C)c3O)CC2)c(=O)n2nc(-c3ccc4oc(=O)n(C)c4c3)nc2n1CC(=O)Nc1ccc(C(F)(F)F)cc1Cl [WO2025049746, Example 225]",0.027,0.032
"CCc1c(N2CCN(C(=O)c3ncnc(C)c3O)CC2)c(=O)n2nc(-c3cc(C)c4c(c3)CCO4)nc2n1CC(=O)Nc1ccc(C(F)(F)F)cc1Cl [WO2025049746, Example 171]",0.058,0.042
"CCc1c(N2CCN(C(=O)c3ncnc(C)c3O)CC2)c(=O)n2nc(-c3ccc4[nH]c(=O)ccc4c3)nc2n1CC(=O)Nc1ccc(C(F)(F)F)cc1Cl [WO2025049746, Example 318]",0.023,0.024
"CCc1c(N2CCN(C(=O)c3ncnc(C)c3O)CC2)c(=O)n2nc(N(C)C)nc2n1CC(=O)Nc1ccc(C(F)(F)F)c2c1CC2 [WO2025049746, Example 104]",0.0269,0.0228
"CCc1c(N2CCN(C(=O)c3ncnc(C)c3O)CC2)c(=O)n2nc(C3=CCOCC3)nc2n1CC(=O)Nc1ccc(C(F)(F)C(F)(F)Cl)cc1 [WO2025049746, Example 71]",0.0261,0.0188
"Cc1ncnc(C(=O)N2CCN(c3c4n(c5nc(-c6ccc7c(c6)COC7(C)C)nn5c3=O)[C@H](C(=O)Nc3ccc(C(F)(F)F)cc3Cl)C[C@H]4C)CC2)c1O [WO2025049746, Example 469]",0.0255,0.0275
"CCc1c(N2CCN(C(C)=O)CC2)c(=O)n2nc(-c3ccc4c(c3)OCO4)nc2n1CC(=O)Nc1ccc(C(F)(F)F)cc1Cl [WO2025049746, Example 89]",0.25,0.24

SMILES,IC50 [1] [µM],IC50 [2] [µM]
"CCc1c(N2CCN(C(=O)c3ncnc(C)c3O)CC2)c(=O)n2nc(-c3ccc4c(c3)c(C)nn4C)nc2n1CC(=O)Nc1ccc(C(F)(F)F)cc1Cl [WO2025049746, Example 312]",0.035,0.037
"CCc1c(N2CCN(C(=O)c3ncnc(C)c3O)[C@H]3CC[C@@H]32)c(=O)n2nc(-c3ccc4c(c3)COC4(C)C)nc2n1CC(=O)Nc1ccc(C(F)(F)F)cc1Cl [WO2025049746, Example 458]",0.09,0.093
"CCc1c(N2CCN(C(C)=O)CC2)c(=O)n2nc(-c3ncc(O)cn3)nc2n1CC(=O)Nc1ccc(C(F)(F)F)cc1Cl [WO2025049746, Example 434]",0.577,0.102
"CCc1c(N2CCN(C(=O)c3ncnc(C)c3O)CC2)c(=O)n2nc(-c3ccc4ncn(C)c(=O)c4c3)nc2n1CC(=O)Nc1ccc(C(F)(F)F)cc1Cl [WO2025049746, Example 259]",0.029,0.029
"CCc1c(N2CCN(C(=O)c3ncnc(C)c3O)CC2)c(=O)n2nc(C3=CCOCC3)nc2n1CC(=O)Nc1ccc(C(F)(F)F)c2scnc12 [WO2025049746, Example 368]",0.036,0.03
"CCc1c(N2CC[C@@H](C)N(C(=O)c3ncnc(C)c3O)CC2)c(=O)n2nc(-c3ccc4c(c3)COC4(C)C)nc2n1CC(=O)Nc1ccc(C(F)(F)F)cc1Cl [WO2025049746, Example 461]",0.045,0.05
"CCc1c(N2CCN(C(=O)c3ncnc(C)c3O)CC2)c(=O)n2nc(N(C)C)nc2n1CC(=O)Nc1ccc(C(F)(F)F)cc1C [WO2025049746, Example 77]",0.0621,0.0443
"Cc1ncnc(C(=O)N2CCN(c3c4n(c5nc(-c6ccc7c(c6)COC7(C)C)nn5c3=O)[C@@H](C(=O)Nc3ccc(C(F)(F)F)cc3Cl)C[C@@H]4C)CC2)c1O [WO2025049746, Example 472]",3.74,4.94
"CCc1c(N2CCN(C(=O)c3nc4c(cc3O)CCC4)CC2)c(=O)n2nc(-c3ccc4c(c3)COC4)nc2n1CC(=O)Nc1ccc(C(F)(F)F)cc1Cl [WO2025049746, Example 417]",0.106,0.084
"CCc1c(N2CCN(C(=O)c3nc4c(cc3O)CCOC4)CC2)c(=O)n2nc(-c3ccc4c(c3)COC4)nc2n1CC(=O)Nc1ccc(C(F)(F)F)cc1Cl [WO2025049746, Example 441]",0.068,0.057
"CCc1c(N2CCN(C(=O)C(F)(F)C3(O)CCC3)CC2)c(=O)n2nc(C3=CCOCC3)nc2n1CC(=O)Nc1ccc(C(F)(F)F)cc1Cl [WO2025049746, Example 57]",0.827,0.486
"CCc1c(N2CCN(C(=O)c3ncnc(C)c3O)CC2)c(=O)n2nc(-c3ccc4c(c3)COC4)nc2n1CC(=O)Nc1cc(C2CC2)c(C(F)(F)F)cc1Cl [WO2025049746, Example 418]",0.066,0.057
"CCc1c(N2CCN(C(=O)c3ncnc(C)c3O)CC2)c(=O)n2nc(-c3cc(F)c4nc(C)oc4c3)nc2n1CC(=O)Nc1ccc(C(F)(F)F)cc1Cl [WO2025049746, Example 297]",0.031,0.032
"CCc1c(N2CCN(C(=O)c3ncnc(C)c3O)CC2)c(=O)n2nc(-c3ccn4nccc4c3F)nc2n1CC(=O)Nc1ccc(C(F)(F)F)cc1Cl [WO2025049746, Example 241]",0.018,0.019
"CCc1c(N2CCN(C(=O)c3ncnc(C)c3O)CC2)c(=O)n2nc(-c3ccc4c(c3)C[C@H](C)O4)nc2n1CC(=O)Nc1ccc(C(F)(F)F)cc1Cl [WO2025049746, Example 230]",0.039,0.045
"CCc1c(N2CCN(C(=O)c3ncnc(C)c3O)CC2)c(=O)n2nc(-c3ccc4ccnn4c3)nc2n1CC(=O)Nc1ccc(C(F)(F)F)cc1Cl [WO2025049746, Example 253]",0.024,0.024
"CCc1c(N2CCN(C(=O)c3ncnc(C)c3O)CC2)c(=O)n2nc(-c3ccc4scnc4c3)nc2n1CC(=O)Nc1ccc(C(F)(F)F)cc1Cl [WO2025049746, Example 288]",0.04,0.043
"CCc1c(N2CCN(C(=O)c3ncnc(C)c3O)CC2)c(=O)n2nc(-c3cc4c(cc3F)O[C@@H](C)C4)nc2n1CC(=O)Nc1ccc(C(F)(F)F)cc1Cl [WO2025049746, Example 249]",0.025,0.026
"CCc1c(N2CCN(C(=O)c3ncnc(C)c3O)CC2)c(=O)n2nc(-c3ccn4nccc4c3)nc2n1CC(=O)Nc1ccc(C(F)(F)F)cc1Cl [WO2025049746, Example 176]",0.095,0.076
"CCc1c(N2CCN(C(=O)c3ncnc(C)c3O)CC2)c(=O)n2nc(-c3cccc4c3COC4)nc2n1CC(=O)Nc1c(Cl)cc(C(F)(F)F)c2c1CC2 [WO2025049746, Example 386]",0.089,0.06
"CCc1c(N2CCN(C(=O)c3ncnc(C)c3O)CC2)c(=O)n2nc(-c3cnc4sccc4c3)nc2n1CC(=O)Nc1ccc(C(F)(F)F)cc1Cl [WO2025049746, Example 310]",0.026,0.027
